Data published in the CheMixHub viscosity set.

Assay: xn = mol fraction of the nth substance listed

COCCOCCO + O
viscosity [mPa·s]
Conditions | 293.15 K | 303.15 K | 308.15 K | 313.15 K | 323.15 K
101.3 kPa, x1 = 0.0164 | 1.374 | 1.061 | – | 0.8527 | 0.6962
101.3 kPa, x1 = 0.0361 | 1.895 | 1.421 | – | 1.108 | 0.8862
101.3 kPa, x1 = 0.0603 | 2.602 | 1.916 | – | 1.445 | 1.131
101.3 kPa, x1 = 0.0909 | 3.571 | 2.525 | – | 1.858 | 1.441
101.3 kPa, x1 = 0.1298 | 4.594 | 3.232 | – | 2.367 | 1.782
101.3 kPa, x1 = 0.1836 | 5.705 | 3.941 | – | 2.848 | 2.114
101.3 kPa, x1 = 0.2589 | 6.431 | 4.445 | – | 3.193 | 2.366
101.3 kPa, x1 = 0.3739 | 6.442 | 4.514 | – | 3.269 | 2.451
101.3 kPa, x1 = 0.4594 | 6.083 | 4.337 | – | 3.174 | 2.412
101.3 kPa, x1 = 0.5736 | 5.544 | 4.024 | – | 2.994 | 2.296
101.3 kPa, x1 = 0.6641 | 5.108 | 3.753 | – | 2.849 | 2.204
101.3 kPa, x1 = 0.7397 | 4.791 | 3.554 | – | 2.724 | 2.122
101.3 kPa, x1 = 0.8287 | 4.441 | 3.341 | – | 2.594 | 2.031
101.3 kPa, x1 = 0.8794 | 4.286 | 3.239 | – | 2.511 | 1.987
101.3 kPa, x1 = 0.9331 | 4.149 | 3.143 | – | 2.455 | 1.955
101.33 kPa, x1 = 0.013 | – | – | 0.914 | – | –
101.33 kPa, x1 = 0.0426 | – | – | 1.445 | – | –
101.33 kPa, x1 = 0.058 | – | – | 1.73 | – | –
101.33 kPa, x1 = 0.0793 | – | – | 2.131 | – | –
101.33 kPa, x1 = 0.0999 | – | – | 2.476 | – | –
101.33 kPa, x1 = 0.1286 | – | – | 2.872 | – | –
101.33 kPa, x1 = 0.1865 | – | – | 3.333 | – | –
101.33 kPa, x1 = 0.3088 | – | – | 3.876 | – | –
101.33 kPa, x1 = 0.4518 | – | – | 3.836 | – | –
101.33 kPa, x1 = 0.5434 | – | – | 3.625 | – | –
101.33 kPa, x1 = 0.6518 | – | – | 3.448 | – | –
101.33 kPa, x1 = 0.7694 | – | – | 3.235 | – | –
101.33 kPa, x1 = 0.9087 | – | – | 2.996 | – | –
101.33 kPa, x2 = 0.0109 | – | – | 2.874 | – | –

CN1CCN(C)C1=O + CCCCCCn1cc[n+](C)c1.[Cl-]
100 kPa
Conditions | viscosity [mPa·s]
298.15 K, x2 = 0.1007 | 4.815
303.15 K, x2 = 0.7981 | 978.5

O=C([O-])[C@H](O)[C@@H](O)[C@H](O)[C@H](O)CO.[Na+] + O
viscosity [mPa·s], 100 kPa
Conditions | 298.15 K | 308.15 K | 318.15 K
x1 = 0.0004 | 0.8985 | 0.7295 | 0.6062
x1 = 0.0007 | 0.9101 | 0.7386 | 0.6138
x1 = 0.001 | 0.9193 | 0.7501 | 0.6218

CC(C)[C@@H]1CC[C@@H](C)C[C@H]1O + CCC(O)CO
Conditions | viscosity [mPa·s]
298.15 K, 101.33 kPa, x1 = 0.5 | 88.2

NC(N)=O + CO
viscosity [mPa·s], 101 kPa
Conditions | 293.15 K | 298.15 K | 303.15 K | 308.15 K | 313.15 K | 318.15 K | 323.15 K
x1 = 0.08238 | 0.924 | 0.849 | 0.781 | 0.721 | 0.668 | 0.62 | 0.576
x1 = 0.09642 | – | 0.9735 | 0.8914 | 0.8215 | 0.7546 | 0.6953 | –
x1 = 0.1034 | 1.031 | 0.942 | 0.864 | 0.794 | 0.732 | 0.677 | 0.627
x1 = 0.1289 | 1.164 | 1.064 | 0.975 | 0.896 | 0.826 | 0.764 | 0.707
x1 = 0.138 | – | 1.222 | 1.111 | 1.019 | 0.9311 | 0.8588 | –

NC(N)=O + c1ccncc1
Conditions | viscosity [mPa·s]
298.15 K, 101 kPa, x1 = 0.012 | 0.939

Cc1ccccc1C + O=C1CCCO1
viscosity [mPa·s], 101.33 kPa
Conditions | x2 = 0.1199 | x2 = 0.1801 | x2 = 0.2998 | x2 = 0.4005 | x2 = 0.5044 | x2 = 0.5994 | x2 = 0.7011 | x2 = 0.7885 | x2 = 0.9087
293.15 K | 0.907 | 0.955 | 1.054 | 1.145 | 1.248 | 1.351 | 1.472 | 1.584 | 1.75
298.15 K | 0.854 | 0.901 | 0.996 | 1.081 | 1.175 | 1.269 | 1.379 | 1.48 | 1.629
303.15 K | 0.795 | 0.839 | 0.927 | 1.006 | 1.093 | 1.178 | 1.276 | 1.367 | 1.502
308.15 K | 0.747 | 0.787 | 0.867 | 0.937 | 1.014 | 1.09 | 1.179 | 1.263 | 1.39
